Test results taken from ChEMBL document CHEMBL1147144, “Novel styrylpyridines as probes for SPECT imaging of amyloid plaques” (J Med Chem, 2007).

Experiments:
[1] = biological target: Amyloid-beta precursor protein (Homo sapiens, UniProt P05067); experiment: Displacement of […] from Abeta peptide plaques in Alzheimer's disease patient brain
[2] = tested on: Thyroid gland; experiment: Biodistribution in ICR mouse thyroid at 5 to 10 uCi, iv after 30 mins; assay type: ADME, organism-based; conditions: in vivo, 0.5 h
[3] = tested on: Brain; experiment: Biodistribution in ICR mouse brain at 5 to 10 uCi, iv after 1 hr; assay type: ADME, organism-based; conditions: in vivo
[4] = tested on: Kidney; experiment: Biodistribution in ICR mouse kidney at 5 to 10 uCi, iv after 1 hr; assay type: ADME, organism-based; conditions: in vivo
[5] = tested on: Liver; experiment: Biodistribution in ICR mouse liver at 5 to 10 uCi, iv after 2 hrs; assay type: ADME, organism-based; conditions: in vivo
[6] = tested on: Muscle tissue; experiment: Biodistribution in ICR mouse muscle at 5 to 10 uCi, iv after 2 mins; assay type: ADME, organism-based; conditions: in vivo
[7] = tested on: Kidney; experiment: Biodistribution in ICR mouse kidney at 5 to 10 uCi, iv after 2 hrs; assay type: ADME, organism-based; conditions: in vivo
[8] = tested on: Kidney; experiment: Biodistribution in ICR mouse kidney at 5 to 10 uCi, iv after 2 mins; assay type: ADME, organism-based; conditions: in vivo
[9] = tested on: Muscle tissue; experiment: Biodistribution in ICR mouse muscle at 5 to 10 uCi, iv after 2 hrs; assay type: ADME, organism-based; conditions: in vivo
[10] = tested on: Heart; experiment: Biodistribution in ICR mouse heart at 5 to 10 uCi, iv after 2 mins; assay type: ADME, organism-based; conditions: in vivo
[11] = tested on: Spleen; experiment: Biodistribution in ICR mouse spleen at 5 to 10 uCi, iv after 1 hr; assay type: ADME, organism-based; conditions: in vivo
[12] = tested on: Lung; experiment: Biodistribution in ICR mouse lung at 5 to 10 uCi, iv after 1 hr; assay type: ADME, organism-based; conditions: in vivo
[13] = tested on: Blood; experiment: Biodistribution in ICR mouse blood at 5 to 10 uCi, iv after 2 mins; assay type: ADME, organism-based; conditions: in vivo
[14] = tested on: Blood; experiment: Biodistribution in ICR mouse blood at 5 to 10 uCi, iv after 30 mins; assay type: ADME, organism-based; conditions: in vivo, 0.5 h
[15] = tested on: Blood; experiment: Biodistribution in ICR mouse blood at 5 to 10 uCi, iv after 1 hr; assay type: ADME, organism-based; conditions: in vivo
[16] = tested on: Heart; experiment: Biodistribution in ICR mouse heart at 5 to 10 uCi, iv after 2 hrs; assay type: ADME, organism-based; conditions: in vivo
[17] = tested on: Brain; experiment: Biodistribution in ICR mouse brain at 5 to 10 uCi, iv after 2 mins; assay type: ADME, organism-based; conditions: in vivo
[18] = tested on: Liver; experiment: Biodistribution in ICR mouse liver at 5 to 10 uCi, iv after 2 mins; assay type: ADME, organism-based; conditions: in vivo
[19] = tested on: Zone of skin; experiment: Biodistribution in ICR mouse skin at 5 to 10 uCi, iv after 30 mins; assay type: ADME, organism-based; conditions: in vivo, 0.5 h
[20] = tested on: Heart; experiment: Biodistribution in ICR mouse heart at 5 to 10 uCi, iv after 1 hr; assay type: ADME, organism-based; conditions: in vivo
[21] = tested on: Heart; experiment: Biodistribution in ICR mouse heart at 5 to 10 uCi, iv after 30 mins; assay type: ADME, organism-based; conditions: in vivo, 0.5 h
[22] = tested on: Muscle tissue; experiment: Biodistribution in ICR mouse muscle at 5 to 10 uCi, iv after 30 mins; assay type: ADME, organism-based; conditions: in vivo, 0.5 h
[23] = tested on: Spleen; experiment: Biodistribution in ICR mouse spleen at 5 to 10 uCi, iv after 2 hrs; assay type: ADME, organism-based; conditions: in vivo
[24] = tested on: Zone of skin; experiment: Biodistribution in ICR mouse skin at 5 to 10 uCi, iv after 2 hrs; assay type: ADME, organism-based; conditions: in vivo
[25] = tested on: Lung; experiment: Biodistribution in ICR mouse lung at 5 to 10 uCi, iv after 2 hrs; assay type: ADME, organism-based; conditions: in vivo
[26] = tested on: Thyroid gland; experiment: Biodistribution in ICR mouse thyroid at 5 to 10 uCi, iv after 2 hrs; assay type: ADME, organism-based; conditions: in vivo
[27] = tested on: Liver; experiment: Biodistribution in ICR mouse liver at 5 to 10 uCi, iv after 30 mins; assay type: ADME, organism-based; conditions: in vivo, 0.5 h
[28] = tested on: Brain; experiment: Biodistribution in ICR mouse brain at 5 to 10 uCi, iv after 2 hrs; assay type: ADME, organism-based; conditions: in vivo
[29] = tested on: Liver; experiment: Biodistribution in ICR mouse liver at 5 to 10 uCi, iv after 1 hr; assay type: ADME, organism-based; conditions: in vivo
[30] = tested on: Blood; experiment: Biodistribution in ICR mouse blood at 5 to 10 uCi, iv after 2 hrs; assay type: ADME, organism-based; conditions: in vivo
[31] = tested on: Spleen; experiment: Biodistribution in ICR mouse spleen at 5 to 10 uCi, iv after 30 mins; assay type: ADME, organism-based; conditions: in vivo, 0.5 h
[32] = tested on: Thyroid gland; experiment: Biodistribution in ICR mouse thyroid at 5 to 10 uCi, iv after 1 hr; assay type: ADME, organism-based; conditions: in vivo
[33] = tested on: Brain; experiment: Ratio of drug distribution in brain after 2 mins to 30 mins in ICR mouse at 5 to 10 uCi, iv; assay type: ADME, organism-based; conditions: in vivo
[34] = tested on: Lung; experiment: Biodistribution in ICR mouse lung at 5 to 10 uCi, iv after 30 mins; assay type: ADME, organism-based; conditions: in vivo, 0.5 h
[35] = tested on: Brain; experiment: Biodistribution in ICR mouse brain at 5 to 10 uCi, iv after 30 mins; assay type: ADME, organism-based; conditions: in vivo, 0.5 h
[36] = tested on: Muscle tissue; experiment: Biodistribution in ICR mouse muscle at 5 to 10 uCi, iv after 1 hr; assay type: ADME, organism-based; conditions: in vivo
[37] = tested on: Spleen; experiment: Biodistribution in ICR mouse spleen at 5 to 10 uCi, iv after 2 mins; assay type: ADME, organism-based; conditions: in vivo
[38] = tested on: Lung; experiment: Biodistribution in ICR mouse lung at 5 to 10 uCi, iv after 2 mins; assay type: ADME, organism-based; conditions: in vivo
[39] = Partition coefficient, log P at pH 7.4; assay type: physicochemical; conditions: octanol/water
[40] = tested on: Kidney; experiment: Biodistribution in ICR mouse kidney at 5 to 10 uCi, iv after 30 mins; assay type: ADME, organism-based; conditions: in vivo, 0.5 h
[41] = tested on: Zone of skin; experiment: Biodistribution in ICR mouse skin at 5 to 10 uCi, iv after 1 hr; assay type: ADME, organism-based; conditions: in vivo
[42] = tested on: Zone of skin; experiment: Biodistribution in ICR mouse skin at 5 to 10 uCi, iv after 2 mins; assay type: ADME, organism-based; conditions: in vivo
[43] = tested on: Thyroid gland; experiment: Biodistribution in ICR mouse thyroid at 5 to 10 uCi, iv after 2 mins; assay type: ADME, organism-based; conditions: in vivo

Sequence of Amyloid-beta precursor protein (P05067 whole entry): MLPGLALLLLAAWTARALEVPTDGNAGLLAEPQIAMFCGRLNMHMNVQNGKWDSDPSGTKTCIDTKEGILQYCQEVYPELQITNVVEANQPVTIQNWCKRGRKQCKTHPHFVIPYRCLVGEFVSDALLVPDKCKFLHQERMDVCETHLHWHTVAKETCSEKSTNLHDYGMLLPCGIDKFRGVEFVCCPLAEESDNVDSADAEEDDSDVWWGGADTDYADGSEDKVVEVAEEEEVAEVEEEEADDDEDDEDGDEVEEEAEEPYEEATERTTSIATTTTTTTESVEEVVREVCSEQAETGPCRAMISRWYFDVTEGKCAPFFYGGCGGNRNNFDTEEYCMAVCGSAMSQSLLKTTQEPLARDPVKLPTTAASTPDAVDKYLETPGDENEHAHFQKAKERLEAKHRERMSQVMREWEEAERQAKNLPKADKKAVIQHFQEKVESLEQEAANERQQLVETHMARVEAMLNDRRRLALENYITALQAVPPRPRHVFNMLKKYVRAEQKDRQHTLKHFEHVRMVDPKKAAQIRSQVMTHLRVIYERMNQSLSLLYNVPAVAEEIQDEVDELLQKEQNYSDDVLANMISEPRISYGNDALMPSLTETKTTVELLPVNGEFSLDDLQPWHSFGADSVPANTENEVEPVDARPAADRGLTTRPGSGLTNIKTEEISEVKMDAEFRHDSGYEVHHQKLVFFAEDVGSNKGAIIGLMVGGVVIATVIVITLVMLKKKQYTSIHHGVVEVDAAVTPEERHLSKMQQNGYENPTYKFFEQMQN

## CN(C)c1ccc(/C=C/c2cnc(OCCOCCOCCF)c(Br)c2)cc1
[1]
  Ki: 6.8 nM

## CNc1ccc(/C=C/c2cnc(OCCOCCOCCF)c([125I])c2)cc1
[2]
  Drug uptake: 24.1 % ID/g
[3]
  Drug uptake: 0.62 % ID/g
[4]
  Drug uptake: 2.81 % ID/g
[5]
  Drug uptake: 6.25 % ID/g
[6]
  Drug uptake: 1.04 % ID/g
[7]
  Drug uptake: 1.86 % ID/g
[8]
  Drug uptake: 9.03 % ID/g
[9]
  Drug uptake: 0.44 % ID/g
[10]
  Drug uptake: 9.85 % ID/g
[11]
  Drug uptake: 1.75 % ID/g
[12]
  Drug uptake: 2.37 % ID/g
[13]
  Drug uptake: 4.37 % ID/g
[14]
  Drug uptake: 3.83 % ID/g
[15]
  Drug uptake: 2.88 % ID/g
[16]
  Drug uptake: 1.22 % ID/g
[17]
  Drug uptake: 6.22 % ID/g
[18]
  Drug uptake: 26.2 % ID/g
[19]
  Drug uptake: 2.95 % ID/g
[20]
  Drug uptake: 1.75 % ID/g
[21]
  Drug uptake: 2.54 % ID/g
[22]
  Drug uptake: 1.11 % ID/g
[23]
  Drug uptake: 1.27 % ID/g
[24]
  Drug uptake: 1.32 % ID/g
[25]
  Drug uptake: 1.85 % ID/g
[26]
  Drug uptake: 215 % ID/g
[27]
  Drug uptake: 11.5 % ID/g
[28]
  Drug uptake: 0.26 % ID/g
[29]
  Drug uptake: 7.7 % ID/g
[30]
  Drug uptake: 2.21 % ID/g
[31]
  Drug uptake: 2.49 % ID/g
[32]
  Drug uptake: 38.1 % ID/g
[33]
  Ratio: 5.05
[34]
  Drug uptake: 3.01 % ID/g
[35]
  Drug uptake: 1.23 % ID/g
[36]
  Drug uptake: 0.85 % ID/g
[37]
  Drug uptake: 4.41 % ID/g
[38]
  Drug uptake: 6.85 % ID/g
[39]
  logD: 2.2
[40]
  Drug uptake: 3.4 % ID/g
[41]
  Drug uptake: 2.46 % ID/g
[42]
  Drug uptake: 1.48 % ID/g
[43]
  Drug uptake: 5.74 % ID/g

## CNc1ccc(/C=C/c2cnc(OCCO)c([125I])c2)cc1
[2]
  Drug uptake: 17.2 % ID/g
[3]
  Drug uptake: 0.26 % ID/g
[4]
  Drug uptake: 2.16 % ID/g
[5]
  Drug uptake: 3.41 % ID/g
[6]
  Drug uptake: 1.15 % ID/g
[7]
  Drug uptake: 1.53 % ID/g
[8]
  Drug uptake: 11.5 % ID/g
[9]
  Drug uptake: 0.38 % ID/g
[10]
  Drug uptake: 7.16 % ID/g
[11]
  Drug uptake: 0.87 % ID/g
[12]
  Drug uptake: 1.76 % ID/g
[13]
  Drug uptake: 4.14 % ID/g
[14]
  Drug uptake: 3.08 % ID/g
[15]
  Drug uptake: 1.81 % ID/g
[16]
  Drug uptake: 0.76 % ID/g
[17]
  Drug uptake: 8.04 % ID/g
[18]
  Drug uptake: 20.8 % ID/g
[19]
  Drug uptake: 1.86 % ID/g
[20]
  Drug uptake: 0.88 % ID/g
[21]
  Drug uptake: 1.5 % ID/g
[22]
  Drug uptake: 0.91 % ID/g
[23]
  Drug uptake: 1.08 % ID/g
[24]
  Drug uptake: 1.43 % ID/g
[25]
  Drug uptake: 1.58 % ID/g
[26]
  Drug uptake: 99.9 % ID/g
[27]
  Drug uptake: 12.6 % ID/g
[28]
  Drug uptake: 0.15 % ID/g
[29]
  Drug uptake: 5.62 % ID/g
[30]
  Drug uptake: 1.96 % ID/g
[31]
  Drug uptake: 1.34 % ID/g
[32]
  Drug uptake: 36.7 % ID/g
[33]
  Ratio: 9.13
[34]
  Drug uptake: 2.67 % ID/g
[35]
  Drug uptake: 0.88 % ID/g
[36]
  Drug uptake: 0.42 % ID/g
[37]
  Drug uptake: 4.08 % ID/g
[38]
  Drug uptake: 7.43 % ID/g
[39]
  logD: 2.2
[40]
  Drug uptake: 3.73 % ID/g
[41]
  Drug uptake: 1.29 % ID/g
[42]
  Drug uptake: 0.95 % ID/g
[43]
  Drug uptake: 6.31 % ID/g

## CNc1ccc(/C=C/c2cnc(OCCO)c(Br)c2)cc1
[1]
  Ki: 5 nM
